{
  "source": "patent US10829528B2",
  "about": "“Therapeutic agents for neurological and psychiatric disorders” (VIB VZW, priority 2016, dated 2020)",
  "key": {"[1]": {"system": "Schaffer collateral (SC) synapses in mouse hippocampus", "experiment": "fEPSP field recordings at Schaffer collateral synapses in hippocampal slices", "assay_type": "cell-based", "protocol": "We assessed the effect of sAPPα on the synaptic properties of Schaffer collateral (SC) synapses in mouse hippocampus. […] As change in probability of neurotransmitter release inversely correlates with a change in short-term facilitation, we applied a burst of 5 stimuli at 3 different frequencies (20, 50, and 100 Hz) to induce short-term facilitation at the SC. […] Preincubation with the GABABR antagonist CGP54626 (CGP, 10 μM) for 20 min before the incubation with sAPPα blocked its effects on the peak amplitude of the fESPS and the input/output slopes (FIG. 10f-g). Accordingly, CGP occluded sAPPα-induced augmentation of short-term facilitation at 20, 50, and 100 Hz burst frequencies (FIG. 10h-j).\nOn the day of recording the brain of a 2-month-old Balb/c male mouse was quickly removed and 400 μm-thick horizontal slices were prepared in an ice-cold oxygenated buffer containing (in mM): sucrose, 182; KCl, 2.5; MgSO4, 2; NaH2PO4, 1.25; NaHCO3, 25; CaCl2), 0.8; MgCl2, 5; glucose, 25; ascorbate, 1; HEPES, 20. The slicing procedure was performed using a Leica VT1200 vibrating microtome. Slices were then transferred to a submerged recovery chamber at room temperature containing oxygenated (95% 02 and 5% C02) storage artificial cerebrospinal fluid (ACSF) for 30 min before the incubations (see below). The storage ACSF contained, in mM: NaCl, 100; KCl, 2.5; MgSO4, 2; NaH2PO4, 1.25; NaHCO3, 25; CaCl2), 1.2; MgCl2, 3; glucose, 20; ascorbate, 1; sodium pyruvate,3 and HEPES, 20. The slices were incubated in the incubation chambers perfused with oxygenated storage ACSF containing the experimental agents for 90 min before performing field recordings: In the incubation chamber, control slices were perfused with normal storage ACSF while sAPPα slices were perfused with storage ACSF containing 1 μM sAPPα. CGP slices were perfused with storage ACSF containing 10 μM CGP54626 (Tocris). CGP+sAPPα slices were preincubated in the chamber perfused with ACSF+CGP before being transferred into the chamber perfused with storage ACSF implemented with 10 μM CGP54626+1 μM sAPPα. All recordings were performed at 32-33° C. in a recording chamber perfused with ACSF (4 ml/min) on the stage of an Olympus BX51WI microscope equipped with IR optics and oblique illumination. Recording ACSF contains, in mM: NaCl, 129; KCl, 2.5; CaCl2), 1.2; MgCl2, 1.2; NaHCO3, 25; NaH2PO4, 1.25; glucose, 15. Stimulation of the Schaffer-collateral was delivered through a glass suction electrode (10-20 μm tip) filled with ACSF. fEPSPs were recorded using a glass pipette containing ACSF (1-2 MΩ) from proximal synapses in the CA1 stratum radiatum. Field recording experiments were analyzed using Clampfit."}, "[2]": {"system": "cultured hippocampal neurons", "experiment": "FM1-43 dye labeling of presynaptic vesicle recycling", "assay_type": "cell-based, mouse", "settings": "1 μM sAPPα in the presence of CGP", "protocol": "We assessed the effect of sAPPα on synaptic vesicle recycling (ref6) using the activity-dependent dye FM1-43. We measured density (D) and intensity (ΔF) of FM1-43 uptake in presynaptic vesicles turned over by stimulation of 30 action potentials (APs) at a rate of 1 Hz in cultured hippocampal neurons.\nThe experiments were performed in mature (15-28 days in vitro) cultures. Hippocampal neurons were imaged using a FV1000 spectral Olympus confocal microscope using a 60×1.2 NA water immersion objective. The experiments were conducted at room temperature in extracellular Tyrode solution containing (in mM): NaCl, 145; KCl, 3; glucose, 15; HEPES, 10; MgCl2, 1.2; CaCl2), 1.2; pH adjusted to 7.4 with NaOH. For FM-based imaging and analysis, activity-dependent FM1-43 (10 μM) styryl dye was used to estimate basal synaptic vesicle recycling using previously described protocol48. Briefly, action potentials were elicited by passing 50 mA constant current for 1 ms through two platinum wires, separated by ˜7 mm and close to the surface of the coverslip. The extracellular medium contained non-selective blocker of glutamate receptors (0.5 mM kynurenic acid) to block recurrent neuronal activity. 30 stimuli at 1 Hz were applied during FM1-43 loading, while 800 stimuli at 2 Hz during unloading. The fluorescence of individual synapses was determined from the difference between images obtained after staining and after destining (ΔF). Detection of signals was done using custom-written scripts in MATLAB (Mathworks) as described before48."}, "[3]": {"system": "primary hippocampal neurons", "experiment": "mEPSCs & mIPSCs in cultured primary hippocampal neurons (wild type)", "assay_type": "cell-based, mouse", "settings": "for effect on mEPSC frequency (in words) / effect on mIPSC frequency (in words): 250 nM each", "protocol": "mEPSCs & mIPSCs are measured in cultured primary hippocampal neurons at baseline and following acute application of agonists. Excitatory terminals selectively express the sushi domain-containing GABABR1a isoform (ref18), where it functions to inhibit neurotransmitter release (ref 24). Acute exposure of primary hippocampal neurons from wild type mice to 30μM baclofen, a GABABR agonist, or 250 nM sAPPα (Fc cleaved) reduces the frequency of miniature excitatory postsynaptic currents (mEPSCs) by 68% (FIG. 8 a,b) and 39% (FIG. 8 c,d), respectively, with no effect on mEPSC amplitude (FIG. 8e). […] Acute application of 30 μM baclofen or 250 nM purified sAPPα reduces the frequency of miniature inhibitory postsynaptic currents (mIPSCs) by 63% (FIG. 8a, 9a) and 44% (FIG. 8c, 9b), respectively, which is blocked by pretreatment with the GABABR antagonist CGP55845 (CGP, 5 μM) (FIG. 8f, 9d). Application of sAPPα causes a minor (14%) reduction on mIPSC amplitude (FIG. 8e, 9c). […] Baclofen is known to reduce the frequencies of mEPSCs and mIPSCs, which we have also confirmed. […] To confirm that the agonist is acting through GABABR1a, the agonist is tested in cultures with shRNA mediated knockdown of GABABR1a or antisense oligonucleotides mediated exon skipping of the exon encoding the Sushi domain 1 of GABABR1a. Antagonists are tested by treatment in combination with the agonist, Baclofen. […] As an antagonist we test an antibody against the sushi domain sequence (SEQ ID No: 5): […] SWTDMDTPSRCV. An antibody specifically binding to this domain which acts as an antagonist increases the frequencies of mEPSCs and mIPSCs. sAPPα also reduces mEPSC and mIPSC frequency in App/Aplp1 dKO cultures (FIG. 8j, 9f), excluding the possibility that sAPPα interferes with a complex of full-length APP and GABABR1 to exert its effect on GABABR signaling.\nHippocampal neurons were cultured from E18 C57/B16 wild type mice or APP/APLP1 dKO mice (provided by Ulrike Muller46) and plated on poly-D-lysine (Millipore), and laminin (Invitrogen) coated coverslips (Nalge Nunc International). Neurons were maintained in Neurobasal medium (Invitrogen) supplemented with B27, glucose, glutamax, penicillin/streptomycin (Invitrogen) and 25 μM β-mercaptoethanol.\nSingle neurons from wild type or APP/APLP1 null mutant embryos (E18) were recorded within the large neuronal network at DIV 12-15. The intracellular whole-cell pipette medium contained (in mM): 136 KCl, 18 HEPES, 4 Na-ATP, 4.6 MgCl2, 15 Creatine Phosphate, 1 EGTA and 50 U/ml Phospocreatine Kinase (300 mOsm, pH 7.30). Regular external solution contained 2 mM/2 mM Ca2+/Mg2+(in mM: 140 NaCl, 2.4 KCl, 2 CaCl2), 2 MgCl2, 10 HEPES, 14 Glucose (300 mOsm, pH 7.30)) and TTX (1 μM). Pharmacological reagents (30 μM baclofen, 5 μM CGP), sAPLP1, full length sAPP and sAPP derived peptides (250 nM each) were bath applied (dissolved in external medium described above) using a separate gravity driven application inlet. Recordings were done in whole cell voltage clamp configuration at −70 mV with a double EPC-10 amplifier (HEKA Elektronik) under control of Patchmaster v2×32 software (HEKA Elektronik). Currents were low-pass filtered at 3 kHz and stored at 20 kHz. Patch pipettes were pulled from borosilicate glass using a multi-step puller (P-1000; Sutter Instruments). Pipette resistance ranged from 3 to 5 MΩ and was compensated to 75-80%. Only cells with series resistances <15 MΩ were included in analysis. All recordings were done at room temperature. Spontaneous events were detected using Mini Analysis program (Synaptosoft). mEPSCs and mIPSCs were separated on the basis of their distinct decay kinetics, using a threshold of 5 ms47. Baseline was determined from an average of 60 sec of recordings prior to protein or drug treatment. Effect of treatment was determined from an average of 30 sec recordings after 140 sec of protein or drug treatment."}},
  "note": "Where no end group is shown, it is not given here.",
  "data": [
    {"molecule": "C[C@H](NC[C@H](O)CP(=O)(O)CC1CCCCC1)c1ccc(Cl)c(Cl)c1", "note": "[CGP54626, reference compound]", "values": [
      {"measurement": "block of sAPPα effects on peak fEPSP amplitude and input/output slopes", "setting": "[1]; 10 μM preincubation for 20 min before sAPPα", "value": "blocked"},
      {"measurement": "occlusion of sAPPα-induced augmentation of short-term facilitation", "setting": "[1]; 10 μM, 20, 50 and 100 Hz burst frequencies", "value": "occluded"},
      {"measurement": "occlusion of the sAPPα effect on presynaptic strength", "setting": "[2]", "value": "occluded"}
    ]},
    {"molecule": "C[C@H](NC[C@H](O)CP(=O)(O)Cc1ccccc1)c1ccc(Cl)c(Cl)c1", "note": "[CGP55845, reference compound]", "values": [
      {"measurement": "block of the reduction of mIPSC frequency", "setting": "[3]; pretreatment with antagonist 5 μM", "value": "blocked"},
      {"measurement": "block of the sAPPα effect on mEPSC frequency", "setting": "[3]; pretreatment with antagonist 5 μM, then 250 nM sAPPα", "value": "blocks the effect of sAPPα on mEPSC frequency"}
    ]},
    {"molecule": "NCC(CC(=O)O)c1ccc(Cl)cc1", "note": "(stereo not shown) [baclofen, reference compound]", "values": [
      {"measurement": "reduction of mEPSC frequency", "setting": "[3]; 30 µM", "value": 68, "unit": "%"},
      {"measurement": "reduction of mIPSC frequency", "setting": "[3]; 30 µM", "value": 63, "unit": "%"}
    ]},
    {"molecule": "DDSDVWWGGADTDYADG [17mer peptide, DDSDVWWGGADTDYADG]", "values": [
      {"measurement": "effect on mEPSC frequency (in words)", "setting": "[3]; acute application", "value": "reduces mEPSC frequency to a similar degree as sAPPα"},
      {"measurement": "effect on mIPSC frequency (in words)", "setting": "[3]; acute application", "value": "reduce mIPSC frequency to a similar extent as sAPPα"}
    ]},
    {"molecule": "sAPLP1: soluble ectodomain of APP-like protein 1 (protein, UniProt Q03157 39-584, looked up, extracellular domain) extracellular domain: NLAVGSPSAAEAPGSAQVAGLCGRLTLHRDLRTGRWEPDPQRSRRCLLDPQRVLEYCRQMYPELHIARVEQAAQAIPMERWCGGTRSGRCAHPHHEVVPFHCLPGEFVSEALLVPEGCRFLHQERMDQCESSTRRHQEAQEACSSQGLILHGSGMLLPCGSDRFRGVEYVCCPPPATPNPSGMAAGDPSTRSWPLGGRAEGGEDEEEVESFPQPVDDYFVEPPQAEEEEEEEEERAPPPSSHTPVMVSRVTPTPRPTDGVDVYFGMPGEIGEHEGFLRAKMDLEERRMRQINEVMREWAMADSQSKNLPKADRQALNEHFQSILQTLEEQVSGERQRLVETHATRVIALINDQRRAALEGFLAALQGDPPQAERVLMALRRYLRAEQKEQRHTLRHYQHVAAVDPEKAQQMRFQVQTHLQVIEERMNQSLGLLDQNPHLAQELRPQIQELLLAEHLGPSELDASVPGSSSEDKGSLQPPESKDDPPVTLPKGSTDQESSSSGREKLTPLEQYEQKVNASAPRGFPFHSSDIQRDELAPSGTGVSRE", "values": [
      {"measurement": "effect on mEPSC frequency (in words)", "setting": "[3]; acute application", "value": "not"},
      {"measurement": "reduction of mIPSC frequency", "setting": "[3]; acute application, 30 μM baclofen, 250 nM proteins", "value": 17, "unit": "%"}
    ]},
    {"molecule": "ExD-AcD: extension domain-acidic domain fragment of APP695 (195-298aa), non-Fc protein used in ITC and functional assays (protein, left off: a dimerising Fc or GST; small tags and cut ends, extension domain-acidic domain fragment of APP695 (195-298aa), non-Fc protein used in ITC and functional assays) SVDSADAEEDDSDVWWGGADTDYADGGEDKVVEVAEEEEVADVEEEEADDDEDVEDGDEVEEEAEEPYEEATERTTSTATTTTTTTESVEEVVRVPTTAASTPD", "values": [
      {"measurement": "effect on mEPSC frequency (in words)", "setting": "[3]; acute application", "value": "reduces mEPSC frequency to a similar degree as sAPPα"},
      {"measurement": "effect on mIPSC frequency (in words)", "setting": "[3]; acute application", "value": "reduce mIPSC frequency to a similar extent as sAPPα"}
    ]}
  ]
}
